Results reported in patent US9382204B2, “Inhibitors targeting the DNA-binding domain of human STAT3 for treatment of metastatic cancers” (Indiana University Research and Technology Corporation, priority 2013, dated 2016).

How the values were obtained:
STAT3 = STAT3 dimerization (STAT3c non-reducing PAGE, HA/FLAG co-immunoprecipitation) in H1299 cells; format: cell-based, human; details: 20 μM
From the text: To eliminate the possibility that inS3-54 works by off-targeting to the SH2 domain, we tested if inS3-54 inhibits STAT3 dimerization using FLAG-STAT3c, which forms spontaneous homo-dimers via formation of intermolecular disulfide bond.
However, inS3-54 had no effect on production of dimeric STAT3c separated using non-reducing SDS-PAGE or non-denaturing PAGE (FIG. 6B) while S3I-201, a STAT3 inhibitor that binds to the SH2 domain, inhibited STAT3c dimerization (FIG. 6B). To confirm this observation, we performed a co-immunoprecipitation analysis of HA and FLAG-tagged STAT3.

[1] = test system: hematopoietic progenitor cells from STAT3−/− mice; assay: Hematopoietic progenitor cell colony formation assay, STAT3−/− mice; format: cell-based, mouse; details: 20 μM
Method: Hematopoietic progenitor cell colony formation assay was performed as previously described. Briefly, 5×10^4 STAT3^+/+ and STAT3^−/− mouse (C57BL/6) bone marrow cells were stimulated in vitro with 1 U/ml recombinant human erythropoietin, 50 ng/ml recombinant mouse stem cell factor and 5% vol/vol pokeweed mitogen mouse spleen cell conditioned medium, and 0.1 mM hemin in the presence of either IMDM medium, IMDM medium plus inS3-54 analogues or DMSO vehicle control. Colonies were scored seven days after incubation at 37° C. with 5% CO2 and lowered (5%) 02.

MDA-MB-468 = assay: PARP cleavage in MDA-MB-468 cells; format: cell-based, human; details: 72-hour treatment, data not shown
A549 cells = assay: Mouse xenograft model of A549 cells; format: in vivo, NOD/SCID mice
Method: For efficacy study. 5×10^6 A549 cells were injected subcutaneously in the flanks of 12 NOD/SCID mice. When the tumor volume reached about 50.0 mm^3, the mice were randomized into two different groups (6/group) with one treated by formulation vehicle control (Pharmatek Laboratories, San Diego, Calif.) and the other by A18 at 200 mg/kg with oral dosing every two days for four weeks. One mouse in each group died during the study and was eliminated. Tumor volume and body weight were measured twice a week. On the 35th day after implant, mice were euthanized and the tumor tissues were harvested and weighed. Necropsy was also performed to determine the changes in heart, lungs, kidneys, liver and spleen. To evaluate the histological alternation, metastasis in the lung and the expression of STAT3 and its downstream proteins, paraffin-embedded tissue sections were stained with ematoxylin and eosin (H&E) and/or used for immunohistochemistry analysis.

[2] = mouse, in vivo
[3] = 200 mg/kg oral, every two days for four weeks

| SMILES | production of dimeric STAT3c (STAT3; 24 hrs, non-reducing SDS-PAGE or non-denaturing PAGE) | co-immunoprecipitation between HA- and FLAG-tagged STAT3 (STAT3; H1299 cells) | colony formation of hematopoietic progenitor cells from STAT3−/− mice [1] | cleavage of PARP (MDA-MB-468) | final tumor weight compared to control-treated group (A549 cells; [3]) | mouse body weight (A549 cells; [3]) | weight of other organs (A549 cells; [3]) | xenograft tumor growth compared to vehicle control (A549 cells; [3]) | lung metastasis (A549 cells; H&E staining and histology) | expression of survivin and VEGF in xenograft tumors (A549 cells; immunohistochemistry) | dose tolerated by mice [2] |
| --- | --- | --- | --- | --- | --- | --- | --- | --- | --- | --- | --- |
| O=C(O)c1ccc(N2C(=O)/C(=C/c3ccc([N+](=O)[O-])cc3)C=C2c2ccccc2)cc1 [inS3-54, 4-[(3E)-3-[(4-nitrophenyl)-methylidene]-2-oxo-5-phenylpyrrol-1-yl]benzoic acid] | had no effect | had no effect | further reduced | induced cleavage of PARP | – | – | – | – | – | – | – |
| O=C1C(=Cc2ccc(Cl)cc2)C=C(c2ccccc2)N1c1ccc(O)cc1 [Compound A18] | – | – | – | – | significantly less | no significant effect | no difference | significantly reduced | None of the A18-treated mice has any signs of lung metastasis | reduced | up to 200 mg/kg |
